Common to all, as to format: biochemical
For one assay, the target named is T1, human TOR (Homo sapiens, UniProt P42345).
T1 construct: FLAG
The assay is described as follows: mTOR enzyme assay (DELFIA, His6-S6K substrate). The conditions noted are these: read-out: mTOR Kinase Avg. IC50.

Another assay addresses PI3K-alpha (Homo sapiens, UniProt P42336). Kind of assay: PI3K-alpha fluorescence polarization assay. The conditions noted are these: read-out: PI3Kα Avg. IC50. Background: Fluorescence polarisation rises when a labelled molecule tumbles more slowly, as on binding a larger partner.
A further assay addresses PI3K-gamma (Homo sapiens, UniProt P48736). Kind of assay: PI3K-gamma fluorescence polarization assay. The conditions noted are these: PI3Kγ Avg. IC50. Put shortly: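 Inhibition is derived from a polarization signal: after a 1 h, 25° C kinase step (25 μM ATP, 2.5 μM diC8-PIP2, pH 7), EDTA stops the reaction and the GRP1 PH domain/TMR-IP4 pair reports lipid product.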

pIC50: −log10 of the molar value.

Usually pIC50 stands for the IC50 on a negative log10 scale, so that one unit is a factor of ten.

Chain of PI3K-gamma (P48736 whole entry, species assumed, the tested form may be a part): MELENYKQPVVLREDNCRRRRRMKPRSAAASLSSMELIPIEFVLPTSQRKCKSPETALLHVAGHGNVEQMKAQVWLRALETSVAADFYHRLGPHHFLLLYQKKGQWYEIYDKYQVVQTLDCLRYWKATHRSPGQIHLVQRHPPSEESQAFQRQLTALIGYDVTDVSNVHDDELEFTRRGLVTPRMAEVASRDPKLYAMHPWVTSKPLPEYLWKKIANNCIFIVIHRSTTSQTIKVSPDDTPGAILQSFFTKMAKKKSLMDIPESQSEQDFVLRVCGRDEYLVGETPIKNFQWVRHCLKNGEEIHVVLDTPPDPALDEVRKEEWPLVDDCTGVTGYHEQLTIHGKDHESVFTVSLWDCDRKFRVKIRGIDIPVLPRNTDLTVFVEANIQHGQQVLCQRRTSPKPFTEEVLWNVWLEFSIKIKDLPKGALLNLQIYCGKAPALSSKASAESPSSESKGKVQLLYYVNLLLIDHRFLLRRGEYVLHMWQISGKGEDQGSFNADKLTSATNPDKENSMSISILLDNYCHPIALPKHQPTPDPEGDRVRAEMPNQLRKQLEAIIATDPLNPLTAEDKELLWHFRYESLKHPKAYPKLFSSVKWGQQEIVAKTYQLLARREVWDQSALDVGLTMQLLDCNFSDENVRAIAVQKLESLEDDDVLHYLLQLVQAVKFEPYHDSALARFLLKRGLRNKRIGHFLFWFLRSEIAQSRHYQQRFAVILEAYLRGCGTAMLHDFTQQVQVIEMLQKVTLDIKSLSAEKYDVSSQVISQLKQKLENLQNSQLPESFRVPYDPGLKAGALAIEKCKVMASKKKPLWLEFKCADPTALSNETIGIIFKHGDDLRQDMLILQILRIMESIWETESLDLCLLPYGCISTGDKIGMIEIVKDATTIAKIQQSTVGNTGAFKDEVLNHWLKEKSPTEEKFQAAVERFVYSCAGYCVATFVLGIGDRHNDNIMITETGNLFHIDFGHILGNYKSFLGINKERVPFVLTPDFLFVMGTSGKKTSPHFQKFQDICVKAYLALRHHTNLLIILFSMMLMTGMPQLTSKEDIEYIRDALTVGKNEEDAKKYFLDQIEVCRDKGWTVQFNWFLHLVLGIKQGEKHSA
Chain of PI3K-alpha (P42336 whole entry, species assumed, the tested form may be a part): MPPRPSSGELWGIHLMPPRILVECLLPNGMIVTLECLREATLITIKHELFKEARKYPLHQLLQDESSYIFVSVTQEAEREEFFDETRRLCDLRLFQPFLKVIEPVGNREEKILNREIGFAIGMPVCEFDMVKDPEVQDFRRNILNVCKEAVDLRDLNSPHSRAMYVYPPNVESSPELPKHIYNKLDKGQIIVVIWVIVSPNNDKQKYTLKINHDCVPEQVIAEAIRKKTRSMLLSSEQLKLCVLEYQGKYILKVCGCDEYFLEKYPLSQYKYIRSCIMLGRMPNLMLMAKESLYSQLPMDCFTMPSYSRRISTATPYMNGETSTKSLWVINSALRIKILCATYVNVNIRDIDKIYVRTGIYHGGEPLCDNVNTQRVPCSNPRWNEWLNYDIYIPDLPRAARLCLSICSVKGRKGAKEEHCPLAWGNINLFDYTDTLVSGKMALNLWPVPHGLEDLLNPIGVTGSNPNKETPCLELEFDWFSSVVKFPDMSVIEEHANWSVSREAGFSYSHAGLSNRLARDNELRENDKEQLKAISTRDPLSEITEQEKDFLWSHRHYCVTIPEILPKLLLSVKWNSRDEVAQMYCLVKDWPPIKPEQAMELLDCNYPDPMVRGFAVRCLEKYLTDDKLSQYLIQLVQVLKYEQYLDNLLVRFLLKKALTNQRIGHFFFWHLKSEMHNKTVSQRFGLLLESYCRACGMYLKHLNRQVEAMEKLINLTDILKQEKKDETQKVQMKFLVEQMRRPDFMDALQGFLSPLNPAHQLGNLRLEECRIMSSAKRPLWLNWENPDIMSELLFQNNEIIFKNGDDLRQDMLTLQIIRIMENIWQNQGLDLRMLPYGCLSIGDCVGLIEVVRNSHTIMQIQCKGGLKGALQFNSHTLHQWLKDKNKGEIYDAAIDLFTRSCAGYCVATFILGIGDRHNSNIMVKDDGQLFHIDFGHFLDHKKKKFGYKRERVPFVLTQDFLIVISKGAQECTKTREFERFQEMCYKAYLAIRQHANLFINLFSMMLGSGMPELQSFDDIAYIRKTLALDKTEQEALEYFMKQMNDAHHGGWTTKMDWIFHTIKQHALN
Chain of PI3K-alpha (P27986 whole entry partner, species assumed, the tested form may be a part): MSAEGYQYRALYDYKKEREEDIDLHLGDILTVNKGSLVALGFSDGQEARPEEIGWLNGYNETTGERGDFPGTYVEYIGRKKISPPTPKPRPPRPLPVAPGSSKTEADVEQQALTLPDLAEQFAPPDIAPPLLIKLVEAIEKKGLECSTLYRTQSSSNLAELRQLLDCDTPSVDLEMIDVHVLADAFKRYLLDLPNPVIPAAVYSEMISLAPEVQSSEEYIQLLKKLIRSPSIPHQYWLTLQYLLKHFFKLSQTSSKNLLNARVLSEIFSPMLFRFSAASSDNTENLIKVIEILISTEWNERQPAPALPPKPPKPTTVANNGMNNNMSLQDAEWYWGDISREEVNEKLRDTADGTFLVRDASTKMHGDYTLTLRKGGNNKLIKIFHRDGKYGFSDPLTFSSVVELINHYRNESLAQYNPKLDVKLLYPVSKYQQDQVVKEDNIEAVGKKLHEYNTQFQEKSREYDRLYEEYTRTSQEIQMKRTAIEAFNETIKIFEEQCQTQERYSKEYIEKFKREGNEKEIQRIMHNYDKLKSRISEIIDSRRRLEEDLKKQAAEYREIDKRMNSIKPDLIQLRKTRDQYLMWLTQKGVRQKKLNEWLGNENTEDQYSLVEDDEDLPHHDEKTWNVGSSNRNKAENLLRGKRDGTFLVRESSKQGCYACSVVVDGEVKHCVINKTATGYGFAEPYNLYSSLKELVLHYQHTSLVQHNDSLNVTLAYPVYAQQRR

Turning to `COc1cc(F)c2[nH]c(-c3c(C)nn(C)c3C)c(/C=C3\Oc4ccc(NC(=O)Nc5ccc(C(=O)N6CCC(N(C)C)CC6)cc5)cc4C3=O)c2c1` [Compound 729, 1-(4-{[4-(dimethylamino)piperidin-1-yl]carbonyl}phenyl)-3-[(2Z)-2-{[7-fluoro-5-methoxy-2-(1,3,5-trimethyl-1H-pyrazol-4-yl)-1H-indol-3-yl]methylidene}-3-oxo-2,3-dihydro-1-benzofuran-5-yl]urea], the pIC50 is 9.00 on human TOR, 9.46 at PI3K-alpha and 8.54 against PI3K-gamma.

Consider `Cn1c(-c2ccccc2)c(/C=C2\Oc3cc(O)cc(O)c3C2=O)c2c(C#N)cccc21` [Example 437, 3-[(Z)-(4,6-dihydroxy-3-oxo-1-benzofuran-2(3H)-ylidene)methyl]-1-methyl-2-phenyl-1H-indole-4-carbonitrile], for which the pIC50 at human TOR was > 7.64; on PI3K-alpha it was 5.80; on PI3K-gamma, < 5.00.

Consider `CCn1c(C)c(/C=C2\Oc3ccc(NC(=O)Nc4ccc(N(C)CCCN(C)C)cc4)cc3C2=O)c2cc(OC)ccc21` [Compound 653, 1-(4-{[3-(dimethylamino)propyl](methyl)amino}phenyl)-3-{(2Z)-2-[(1-ethyl-5-methoxy-2-methyl-1H-indol-3-yl)methylene]-3-oxo-2,3-dihydro-1-benzofuran-5-yl}urea], for which the pIC50 was 6.90 on human TOR, 8.40 on PI3K-alpha and 7.68 on PI3K-gamma.

`COc1ccc2c(c1)c(/C=C1\Oc3cc(O)cc(O)c3C1=O)c(C1CC1)n2CCO` [Example 313, (2Z)-2-{[2-Cyclopropyl-1-(2-hydroxyethyl)-5-methoxy-1H-indol-3-yl]methylene}-4,6-dihydroxy-1-benzofuran-3(2H)-one]: the pIC50 at human TOR was 9.28; on PI3K-alpha it was 8.52; at PI3K-gamma it was 7.78.

Regarding `COc1cc(F)c2[nH]c(-c3c(C)nn(C)c3C)c(/C=C3\Oc4ccc(NC(=O)Nc5ccc(C(=O)N6CCOCC6)cc5)cc4C3=O)c2c1` [Compound 731, 1-[(2Z)-2-{[7-fluoro-5-methoxy-2-(1,3,5-trimethyl-1H-pyrazol-4-yl)-1H-indol-3-yl]methylidene}-3-oxo-2,3-dihydro-1-benzofuran-5-yl]-3-[4-(morpholin-4-ylcarbonyl)phenyl]urea], the pIC50 at human TOR was 8.52; at PI3K-alpha it was 9.26; against PI3K-gamma it was 8.82.

For the compound `O=C1C(=Cc2c(-c3cccnc3)[nH]c3ccccc23)Oc2cc(O)cc(O)c21` [Example 202, 4,6-dihydroxy-2-[(2-pyridin-3-yl-1H-indol-3-yl)methylene]-1-benzofuran-3(2H)-one], the pIC50 at human TOR was 7.02; at PI3K-alpha it was 5.98; on PI3K-gamma it was 5.15.

Regarding `CC(C)Cn1c(-c2ccccc2)c(C=C2Oc3cc(O)cc(O)c3C2=O)c2ccccc21` [Example 150, 4,6-dihydroxy-2-[(1-isobutyl-2-phenyl-1H-indol-3-yl)methylene]-1-benzofuran-3(2H)-one], the pIC50 on human TOR is 5.19; at PI3K-alpha, 5.65; against PI3K-gamma, 5.66.

As to `CN(C)C(=O)Nc1ccc(-c2cccc3c2c(/C=C2\Oc4cc(O)cc(O)c4C2=O)cn3C)cc1` [Example 394, 3-(4-{3-[(Z)-(4,6-dihydroxy-3-oxo-1-benzofuran-2(3H)-ylidene)methyl]-1-methyl-1H-indol-4-yl}phenyl)-1,1-dimethylurea], the pIC50 on human TOR was 7.16; on PI3K-alpha, 6.34; on PI3K-gamma, 5.38.

With `O=C1/C(=C/c2c[nH]c3cccc(-c4ccc(F)cc4)c23)Oc2cc(O)cc(O)c21` [Example 363, (2Z)-2-{[4-(4-fluorophenyl)-1H-indol-3-yl]methylene}-4,6-dihydroxy-1-benzofuran-3(2H)-one], the pIC50 on human TOR is 5.46; at PI3K-alpha it was 5.78; on PI3K-gamma, 5.97.

Take `CCn1c(C)c(/C=C2\Oc3ccc(NC(=O)Nc4ccc(C(=O)NCCCN(C)C)cc4)cc3C2=O)c2cc(OC)ccc21` [Compound 666, N-[3-(dimethylamino)propyl]-4-[({(2Z)-2-[(1-ethyl-5-methoxy-2-methyl-1H-indol-3-yl)methylidene]-3-oxo-2,3-dihydro-1-benzofuran-5-yl}carbamoyl)amino]benzamide]: the figures for the pIC50 at human TOR, on PI3K-alpha and on PI3K-gamma were 7.47, 9.10 and 8.35, respectively.

Regarding `COc1ccc2c(c1)c(/C=C1\Oc3cc(O)ccc3C1=O)c(C)n2CCN1CCCCC1` [Example 454, (2Z)-6-Hydroxy-2-{[5-methoxy-2-methyl-1-(2-piperidin-1-ylethyl)-1H-indol-3-yl]methylene}-1-benzofuran-3(2H)-one], the pIC50 at human TOR was 5.89; at PI3K-alpha it was 7.49; against PI3K-gamma it was 6.29.

`Cc1ccc2[nH]cc(/C=C3\Oc4c(ccc(O)c4O)C3=O)c2c1` [Example 65, (2Z)-6,7-dihydroxy-2-[(5-methyl-1H-indol-3-yl)methylene]-1-benzofuran-3(2H)-one]: the pIC50 on human TOR was < 4.70; on PI3K-alpha it was 6.42; against PI3K-gamma it was 5.42.

In the case of `N#CCCCn1c(-c2cccnc2)c(C=C2Oc3cc(O)cc(O)c3C2=O)c2ccccc21` [Example 226, 4-{3-[(4,6-dihydroxy-3-oxo-1-benzofuran-2(3H)-ylidene)methyl]-2-pyridin-3-yl-1H-indol-1-yl}butanenitrile], the pIC50 on human TOR is 6.17; at PI3K-alpha, 5.78; against PI3K-gamma it was < 5.00.

For `COc1ccc2c(c1)c(/C=C1\Oc3ccc(NC(=O)Nc4ccc(C(=O)N5CCN(C)CC5)cc4)cc3C1=O)c(C)n2C` [Compound 658, 1-{(2Z)-2-[(5-methoxy-1,2-dimethyl-1H-indol-3-yl)methylidene]-3-oxo-2,3-dihydro-1-benzofuran-5-yl}-3-{4-[(4-methylpiperazin-1-yl)carbonyl]phenyl}urea], the pIC50 at human TOR is 5.61; at PI3K-alpha, 9.52; on PI3K-gamma, 8.67.

For `COc1ccc2c(c1)c(/C=C1\Oc3cc(O)cc(O)c3C1=O)c(C(=O)N(C)C)n2CCN1CCC(O)CC1` [Example 311, 3-[(Z)-(4,6-Dihydroxy-3-oxo-1-benzofuran-2(3H)-ylidene)methyl]-1-[2-(4-hydroxypiperidin-1-yl)ethyl]-5-methoxy-N,N-dimethyl-1H-indole-2-carboxamide], the pIC50 at human TOR is 7.05; on PI3K-alpha, 8.10; at PI3K-gamma, 6.84.

`COc1ccc2c(c1)c(/C=C1\Oc3cc(O)cc(C)c3C1=O)c(C1CC1)n2CCN1CCN(C)CC1` [Example 464, (2Z)-2-({2-Cyclopropyl-5-methoxy-1-[2-(4-methylpiperazin-1-yl)ethyl]-1H-indol-3-yl}methylene)-6-hydroxy-4-methyl-1-benzofuran-3(2H)-one]: the pIC50 is 7.43 at human TOR, 7.87 at PI3K-alpha and 5.84 against PI3K-gamma.

Regarding `COc1ccc2c(c1)c(/C=C1\Oc3cc(O)cc(O)c3C1=O)c(C(=O)N(C)C)n2CC(=O)N(C)C` [Example 325, 3-[(Z)-(4,6-Dihydroxy-3-oxo-1-benzofuran-2(3H)-ylidene)methyl]-1-[2-(dimethylamino)-2-oxoethyl]-5-methoxy-N,N-dimethyl-1H-indole-2-carboxamide], the pIC50 on human TOR is 7.08; at PI3K-alpha, 6.55; at PI3K-gamma, 6.53.

Source of the values: patent US20090311217A1, “3-SUBSTITUTED-1H-INDOLE COMPOUNDS, THEIR USE AS MTOR KINASE AND PI3 KINASE INHIBITORS, AND THEIR SYNTHESES” (priority 2008, published 2009).
